The values below are quoted from earlier work in patent US9072314B2, “Carotenoid-containing compositions and methods” (Mead Johnson Nutrition Company, priority 2007, dated 2015).

The subject of one data set is H. pylori strains. The following applies: strains in Japanese children, cited study.

For `CC1=C(/C=C/C(C)=C/C=C/C(C)=C/C=C/C=C(C)/C=C/C=C(C)/C=C/C2=C(C)C(=O)C(O)CC2(C)C)C(C)(C)CC(O)C1=O` (stereo not shown) [Astaxanthin, astaxanthin], the “antioxidant capacity relative to Vitamin E” value (versus Vitamin E) is on record as 100-500 times. For the same compound, the “antioxidant capacity relative to beta-carotene” value (versus beta-carotene) is given as 10 times.

Turning to `CC[C@H]1OC(=O)[C@H](C)[C@@H](O[C@H]2C[C@@](C)(OC)[C@@H](O)[C@H](C)O2)[C@H](C)[C@@H](O[C@@H]2O[C@H](C)C[C@H](N(C)C)[C@H]2O)[C@](C)(OC)C[C@@H](C)C(=O)[C@H](C)[C@@H](O)[C@]1(C)O` [clarithromycin], the “H. pylori strains tested that were resistant” value in the data set with H. pylori strains was 29%.

Consider `Cc1ncc([N+](=O)[O-])n1CCO` [metronidazole], for which the “H. pylori strains tested that were resistant” value in the data set with H. pylori strains is 24%.
